Measured values as given in patent US6734180B1, “NF-κB inhibitor comprising an indan derivative as an active ingredient” (Daiichi Suntory Pharma Co., Ltd., priority 1998, dated 2004).
Like-named read-outs stand apart in the source and are kept apart here.

Assays:
[1] = test system: NO production; assay: NO production of LPS-stimulated RAW264.7 cells (Griess' method); assay type: cell-based, mouse; details: LPS (10 μg/ml), 24 hours after the stimulation
From the text: (§1) Experiment 3. Effect of lipopolysaccharide (LPS) stimulation on NO and TNF-α production
(§2) When various cells are stimulated with LPS, NV-κB is activated which results in the expression and induction of proteins represented by NOS, TNF-α, and thereby the cells start to produce NO and/or TNF-α.
To determine the production of NO indirectly, the Griess' method utilizing a diazo reaction is useful (Green, L. C. et al., (1982) Anal. Biochem, 126, 131-138). In the Griess' method, the Griess' reagent prepared by mixing naphthylethylenediamine and sulfanilic acid is reacted with NO2^− ion in the culture medium, and the color development thereof is measured by an absorbance at 540 nm.
(§3) The inhibitory effect of these compounds was expressed as IC50 value in Table 3.

[2] = test system: human inducible NO synthase (hiNOS) gene; assay: Expression of the human inducible NO synthase (hiNOS) gene, firefly luciferase reporter in A5 cells; assay type: cell-based; details: IL-1β (1 ng/ml)+TNF-α (500 ng/ml), firefly luciferase activity 24 hours later, read-out: IL-1β + TNF-α stimulation IC50 (inhibitory effect on the expression of the hiNOS gene)
Method: Experiment 1. Effect of compounds on the expression of the human inducible NO synthase (hiNOS) gene
The experiment was carried out using A5 cells (human lung carcinoma cell line A549 cells (ATCC, CCL185) stably transfected with NOS53+F) previously reported by the inventors (Nunokawa, Y. et al., (1997) Biochem. Biophys. Res. Commun. 233, 523-526).
Compounds described in Examples were added to A5 cells simultaneously with IL-1β (1 ng/ml)+TNF-α (500 ng/ml) to investigate the inhibitory effect on the firefly luciferase activity 24 hours later.
The activity of firefly luciferase was measured based on the protocol by the Luciferase Assay System (Promega, U.S.A.).
The inhibitory effect of the compounds claimed in the present invention on the expression of the hiNOS gene was expressed as IC50 value in Table 1.

[3] = test system: TNF-α production; assay: TNF-α production of LPS-stimulated RAW264.7 cells (ELISA); assay type: cell-based, mouse; details: RAW264.7 cells stimulated with LPS for 4 hours
From the text: as §1, §2, §3

[4] = test system: sea pansy luciferase gene (pRL-SV40) under the control of SV40 promoter; assay: Sea pansy luciferase under SV40 promoter (NF-κB independent) in A5 cells; assay type: cell-based, human; details: no stimulation, compound at 1 μg/ml for 4 hours
Method: The activity of sea pansy luciferase was measured based on the protocol by the Dual Luciferase Reporter Assay System (Promega, U.S.A.).

[5] = test system: rat models of carageenin foot pad edema; assay: Carrageenin foot pad edema in rats; assay type: in vivo; details: male Wistar rats, 1 mg/kg intraperitoneally 15 minutes before carrageenin
Method: FIG. 1 is a graph showing the result of Experiment 4 in which the compounds of Example 32 were studied using rat models of carageenin foot pad edema. Each point represents the mean±SE (n=5). Dunnett's test was carried out and the results are shown by * p<0.05 and ** p<0.01.
An aqueous solution of 1% λ-carrageenin (Wako Pure Chemical Industries) in physiological saline (0.1 ml) was intradermally administered to the pad of the left paw of 6-week old male Wistar rats weighing 149 g to 171 g, and changes in the volume of the paw were measured for indicated period. The test compound (0.3, 1 mg/kg) described in Example 32 was suspended in a solution of 0.5% hydroxypropyl cellulose in physiological saline (EPC, Nippon Soda Co., Ltd.) and was intraperitoneally given 15 minutes before the administration of carrageenin. For the control group, a solution of 0.5% HPC in physiological saline was used.

[6] = test system: NF-κB; assay: NF-κB-controlled firefly luciferase in A549/NF-κBLuc cells; assay type: cell-based, human
Method: Experiment 2. Effect of compounds on A549 cells (A549/NF-κBLuc) stably transfected with luciferase plasmid (pNFκB-Luc) having the NF-κB regulatory sequence
Using lipofectamine (Lifetech oriental K.K., Tokyo), pNFκB-Luc (Stratagene, U.S.A.) were cotransfected with pSV2neo (Clontech, U.S.A.) into A549 cells according to the conventional method, and A549/NF-κBLuc stably transfected with pNFκB-Luc were selected by adding G418 sulfate ((1 mg/ml) Lifetech Oriental K.K.) to the culture medium.
NF-κB inhibiting activity was expressed as IC50 values in Table 2.

`Cc1csc2ncnc(NC3Cc4ccccc4C3)c12` [Example 1, 4-(2-indanylamino)-5-methylthieno[2,3-d]pyrimidine] showed an IC50 ([1]; Mus musculus) of 0.71 µM, an IC50 ([2]; Homo sapiens) of 0.28 µM and an IC50 ([3]; Mus musculus) of 1.1 µM.
With `Cc1noc2ncnc(NC3Cc4ccccc4C3)c12` [Example 10, 3-methyl-4-(2-indanylamino)isoxazolo[5,4-d]pyrimidine] the melting point was 208 °C.
With `c1ccc2c(c1)CC(Nc1ncnc3nc[nH]c13)C2` [Example 37, 6-(2-indanylamino)purine] the melting point was ≥ 300 °C.
In the case of `Cc1csc2ncnc(NC3Cc4ccc(C(=O)NCc5ccccc5)cc4C3)c12` (stereo not shown) [Example 31, N-benzyl-2-(5-methylthieno[2,3-d]pyrimidine-4-yl)amino-5-indan carboxamide], the IC50 ([1]; Mus musculus) is reported as 0.024 µM, the IC50 ([2]; Homo sapiens) is reported as 0.0024 µM and the IC50 ([3]; Mus musculus) is reported as 0.048 µM. The “influence on the activity of sea pansy luciferase” value [4] was “had no influence”.
With `c1ccc2c(c1)CC(Nc1ncnc3occc13)C2` [Example 6, 4-(2-indanylamino)furo[2,3-d]pyrimidine] the IC50 ([2]; Homo sapiens) was 0.8 µM.
With `Cc1csc2ncnc(NC3Cc4ccc(C(=O)N5CCOCC5)cc4C3)c12` (stereo not shown) [Example 32, 2-[5-methylthieno[2,3-d]pyrimidine-4-yl]aminoindan-5-carboxylic acid morpholinamide] the IC50 [1] was 0.025 µM, the “edema formation at 2 hours” value ([5]; 2 hours) was “significantly suppressed edema formation” and the “edema suppression at 3 hours and after” value ([5]; 3 hours and after) was “high rate of edema suppression”. It also gave an IC50 ([6]; IL-1β (1 ng/ml) for 4 hours, read-out: IL-1β stimulation IC50 (NF-κB inhibiting activity)) of 0.051 µM, an IC50 ([6]; TNF-α (500 ng/ml) for 4 hours, read-out: TNF-α stimulation IC50 (NF-κB inhibiting activity)) of 0.089 µM and an IC50 [2] of 0.051 µM. For the same compound, the IC50 [3] was 0.051 µM and the “influence on the activity of sea pansy luciferase” value [4] was “had no influence”.
In the case of `CC(C)c1csc2ncnc(NC3Cc4ccccc4C3)c12` [Example 22, 4-(2-indanylamino)-5-isopropylthieno[2,3-d]pyrimidine], the IC50 ([1]; Mus musculus) is reported as 0.064 µM, the IC50 ([2]; Homo sapiens) is reported as 0.064 µM and the IC50 ([3]; Mus musculus) is reported as 0.16 µM.
Work on `Cc1csc2ncnc(NC3Cc4ccc(Oc5ccccc5)cc4C3)c12` (stereo not shown) [Example 25, 4-(5-phenoxyindan-2-yl)amino-5-methylthieno[2,3-d]pyrimidine] yielded an IC50 ([2]; Homo sapiens) of 0.15 µM.
